Data from patent US7482008B1, “Human T cell reactive feline protein (TRFP) isolated from house dust and uses therefor” (Merck Patent GmbH, priority 1989, dated 2009).

Key:
[1] = system: human IgE (cat allergic patient plasma); experiment: Dot blot assay of human IgE binding; conditions: percent of cat allergic patients with positive IgE binding
Experimental: TRFP was coated at 2, 0.2 and 0.02 μg/dot and the peptides at 10, 1 and 0.1 μg/dot. Wells were then washed with 200 μl PBS. After equilibration of blots with Tween solution, (Tris-HCL; pH 7.5 0.025M NaCl 0.17 m Tween-20 0.5%) all sections were blocked with 1% nonfat dry milk, 1% fetal calf serun/Tween solution for 1-1.5 hour. Patient plasma was used at 10% (v/v) in 1% milt/Tween solution and preabsorbed on blank strips of nitrocellulose for 1 hour. After preabsorption, the diluted patient plasma sample was incubated with the antigen bearing dot blot overnight at room temperature (RT). Nitrocellulose dot blot was incubated in biotinylated goat anti-human IgE (1:2500) in Tween solution for 2 hours RT. After washing, the sections were incubated in 1 μCi ^125I-Streptavidin, 1 hour. Following removal of unbound label by extensive washing, the blots were exposed to film for 16 hours.

BDF1 mice = experiment: Tolerization of mice with peptide s.c. or i.v., peptide-specific IL-2 production of lymph node cells (CTLL-2); assay type: in vivo, mouse; conditions: 300 μg in PBS day 0 and 5, intravenously and subcutaneously; challenge 100 μg in CFA
Experimental: Four groups of five BDF1 (C57BL/6J×DBA/2J) mice (females, 6-8 weeks of age), were injected either subcutaneously in a single dorsal site between the forelimbs or intravenously through one of the tail veins. […] The animals were sacrificed by cervical dislocation on day 20 and inguinal and popliteal nodes were removed and placed in rinsing buffer, cold RPMI 1640 containing 1% Fetal Bovine Serum (FBS). The nodes were rinsed with rinsing buffer and forced through a fine stainless steel mesh, using a glass pestal to suspend them in rinsing buffer. The suspended cells were rinsed two times by centrifugation at 1500 rpm for 10 minutes and resuspended with rinsing buffer. An aliquot of suspended cells from each animal was counted on a Coulter Counter Model ZB.
The 0.2 ml cultures were done in triplicate in flat bottom 96 well plates (Costar) at 37° C. and 5% CO2. After 24 hours, […] of the media from each well was placed in separate round bottom 96 well plates (Costar) and was frozen overnight at −20° C. to eliminate carryover of live cells. The supernatants were tested after thawing for their ability to support the growth of CTLL-2, an IL-2 dependent T cell clone (ATCC TIB#214). […] The ^3H-incorporation in each well was counted by a Betaplate Model 1205 scintillation counter. […]

CD4+ T cells = experiment: Cytokine production of purified CD4+ T cells from peptide Y pre-injected mice; assay type: in vivo, mouse; conditions: CD4+ T cells from pre-injected mice compared to control CD4+ cells
[2] = system: BDF1 mice preimmunized with TRFP; experiment: Peptide Y tolerization of mice preimmunized with TRFP, IL-2 (CTLL-2) and IL-4 (CT4S) production; assay type: in vivo, mouse
Experimental: BDF1 mice were each immunized with 100 μg TRFP in 200 μl IFA (Incomplete Freund's Adjuvant) in a single site intraperitoneally. After four months, the mice were bled and grouped according to their anti-TRFP IgG antibody levels as follows. The mice were warmed with an infra-red lamp and bled through one of the tail veins by nicking the vein with a razor blade (Gilette Platinum Plus). The blood was allowed to drip into a serum separating tube (Microtainer, Becton-Dickenson) and allowed to clot. The sera was then separated from the clot by centrifugation at 13,000 rpm. The sera was stored at −20° C. until use. The sera was assayed for TRFP-specific IgG by ELISA. […] After rinsing, the bound mouse antibody was detected by incubation with biotinylated goat anti-mouse IgG (Southern Biotechnology Associates) diluted 1/10000 in PBS. […] The resulting O.D. values were read by an ELISA reader (Bio-Tek modal #310) at 450 nm to quantitate the complexes bound to TRFP protein on the plates. […]
There are several phenotypic classes of T helper cells which can be differentiated by their production of lymphokines. […] IL-2 production is easily measured from primary in vitro lymph node cultures through the IL-2 dependent CTLL-2 cell line. Similarly, IL-4 can be measured with cultures of the IL-4 dependent CT4S cells (provided by W. Paul). […] The plates were harvested and counted identically to the IL-2 assays detailed above. […]

Positive Binding [1] [%] | Substance | specific IL-2 secretion of draining lymph node cells (BDF1 mice) | reduction in the production of the cytokines (IL-2, IL-3 and IL-4) (CD4+ T cells) | tolerization of peptide Y specific T cells (IL-2) ([2]; 300 μg s.c. days 0 and 5, animals preimmunized with TRFP) | peptide specific production of both IL-2 and IL-4 in secondary in vitro cultures ([2]; pooled lymph node cells, stimulation index)
100 | TRFP: human T cell reactive feline protein affinity purified from house dust; two covalently linked chains | – | – | – | –
– | peptide Y: amino acid residues 29-55 from chain 1 of TRFP (SEQ. ID. NO: 18) (KALPVVLENARILKNCVDAKMTEEDKE) | decreased specific IL-2 secretion | greater than 75% | can be tolerized | decreased
